In patent US12590093B2, “Indolo[2′,3′:3,4]pyrido[2,1-b]quinazoline compound and use thereof” (INSTITUTE OF MEDICINAL BIOTECHNOLOGY CHINESE ACADEMY OF …, priority 2019, dated 2026):

How the values were obtained:
ABCA1 = ABCA1 up-regulation, luciferase reporter in ABCA1P-LUC HepG2 cells; assay type: cell-based; details: Homo sapiens, 18 h, maximum up-regulation fold of luciferase activity versus DMSO, read-out: ABCA1 max
Description: (§1) Experiments were conducted to detect whether the compounds of the disclosure can pharmacologically up-regulate the expression of ABCA1 and SR-BI. Firstly, ABCA1P-LUC HepG2 cells or SR-BI-LUC HepG2 cells in logarithmic growth phase were digested, diluted in cell culture medium, and counted. Cells were seeded into 96-well plates at a density of 5×10^5/ml (100 μL of the single-cell suspension per well). After cells fully adhered (about 6 h), the medium containing 10% FBS was removed, and the cells were gently washed with PBS. Serum free MEM-EBSS medium (200 μL per test well) and 2 μL of the compounds to be tested (at a final concentration of 10 μg/mL) were added to each test well, and meanwhile, DMSO at a corresponding concentration was added to the control well. After 18-24 h, the medium was removed. Cell Luciferase activity was measured by a method as described in the Luciferase Assay System. By optimizing the final concentration of DMSO, the treatment time of the compounds on the cells and the number of cells seeded into each well during the screening, the final screening conditions were determined as follows: each well is seeded with 5×10^4 cells, DMSO is added at a final concentration of 1%, and the sample is treated for 18 h.
(§2) The ratio of change of luciferase activity is calculated with the following formula: Ratio of change (%)=A/B×100;
(§3) wherein A is the luciferase activity (RLU) measured after the compound to be tested is added, and B is the luciferase activity (RLU) measured after the blank control (DMSO) is added. The luciferase activity of cells in each well was measured, and the dose-effect relationship between the concentration of the compound and the ratio of change of the luciferase activity was determined to calculate the EC50.

SR-BI = SR-BI up-regulation, luciferase reporter in SR-BI-LUC HepG2 cells; assay type: cell-based; details: Homo sapiens, 18 h, maximum up-regulation of luciferase activity versus DMSO, read-out: SR-BI max
Description: as §1, §2, §3

LXRα = molecular target: T1, LXRα (Homo sapiens, UniProt Q13133); experiment: Nuclear receptor reporter gene transient transfection (pBIND-hLXRs-LBD) in HepG2 cells, LXRα; assay type: cell-based; details: for LXRα max: HepG2 cells, reporter gene, 18-24 h; for LXRα agonist activity: result in words
T1 construct: expressed in transfected cells; host or cells: HepG2
T1 sequence (Q13133 209-447 limits assumed): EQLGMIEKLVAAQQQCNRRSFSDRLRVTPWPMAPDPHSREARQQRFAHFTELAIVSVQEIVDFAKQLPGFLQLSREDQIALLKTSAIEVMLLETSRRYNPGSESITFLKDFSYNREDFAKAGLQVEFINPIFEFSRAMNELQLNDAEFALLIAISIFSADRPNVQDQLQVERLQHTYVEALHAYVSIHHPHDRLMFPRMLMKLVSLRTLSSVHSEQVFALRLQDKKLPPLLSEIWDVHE
Description: (§4) HepG2 cells in logarithmic growth phase were digested, seeded into the white/clear 96-well plate at a density of 5×10^4 cells/well/100 μL until the cells grew to about 90% confluence and in good condition. 0.5 μL liposome (Lipofectamine® 2000) diluted with blank medium to 25 μL per well and incubated at room temperature for 5 min. The corresponding plasmids DNA (nuclear receptor plasmid:Gal4=1:10) were diluted in blank DMEM medium to 25 μL/well (mixing of two plasmids), then mixed evenly with the diluted liposome, and incubated for 20 min at 37° C. The DNA-liposome complex (50 μL per well) was added with the DMEM complete medium (100 μL per well) and mixed thoroughly to obtain a DNA-liposome complex cell culture. The cell medium was discarded, and replaced with the DNA-liposome complex cell culture (150 μL/well) (37° C., 5% CO2). After 6 h, the DNA-liposome complex cell culture medium was discarded, and 200 μL serum-free DMEM medium containing the compound at an appropriate concentration was added to each test well, and cultured for 18-24 h. The cell Luciferase activity was measured by the method as described in the Luciferase Assay System.

LXRβ = molecular target: T2, LXRβ (Homo sapiens, UniProt P55055); experiment: Nuclear receptor reporter gene transient transfection (pBIND-hLXRs-LBD) in HepG2 cells, LXRβ; assay type: cell-based; details: for LXRβ max: HepG2 cells, reporter gene, 18-24 h; for LXRβ agonist activity: result in words
T2 construct: expressed in transfected cells; host or cells: HepG2
T2 sequence (P55055 222-460 limits assumed): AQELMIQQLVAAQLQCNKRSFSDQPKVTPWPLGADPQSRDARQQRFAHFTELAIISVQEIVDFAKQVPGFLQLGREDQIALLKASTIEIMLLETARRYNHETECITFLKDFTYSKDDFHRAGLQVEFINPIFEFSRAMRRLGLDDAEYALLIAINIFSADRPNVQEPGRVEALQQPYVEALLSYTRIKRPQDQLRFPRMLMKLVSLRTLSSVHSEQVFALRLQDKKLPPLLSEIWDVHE
Description: as §4

[1] = background statement; cited from earlier work

LXRα max (LXRα)	LXRα agonist activity (LXRα)	LXRβ max (LXRβ)	LXRβ agonist activity (LXRβ)	Compound	maximal fold induction (ABCA1)	maximal fold induction (SR-BI)	oral bioavailability [1]
–	–	–	–	O=c1c2cccnc2nc2n1CCc1c-2[nH]c2ccc(Cl)cc12 [TR14, 10-chloro-8,13-dihydropyrido[2″,3″: 4′,5′]pyrimido[1′,2′:1,2]pyrido[3,4-b]indol-5(7H)-one]	1.48	1.57	–
–	–	–	–	O=c1c2cccnc2nc2n1CCc1c-2[nH]c2c(F)cccc12 [TR13, 12-fluoro-8,13-dihydropyrido[2″,3″:4′,5′]pyrimido[1′,2′:1,2]pyrido[3,4-b]indol-5(7H)-one]	1.54	1.72	–
–	–	–	–	O=c1c2ccccc2nc2n1CCc1c-2[nH]c2c(Cl)cccc12 [TR10, 12-chloro-8,13-dihydroindolo[2′,3′:3,4]pyrido[2,1-b]quinazolin-5(7H)-one]	1.43	1.72	–
–	–	–	–	O=c1c2ccccc2cc2n1CCc1c-2[nH]c2ccccc12 [TY3, 8,13-dihydroindolo[2′,3′:3,4]pyrido[1,2-b]isoquinolin-5(7H)-one]	1.97	1.41	–
2.03	showed agonist activity	1.69	showed agonist activity	O=C1c2ccccc2N(C(=O)C(F)(F)F)C2c3[nH]c4ccccc4c3CCN12 (stereo not shown) [TR6, 14-(2,2,2-trifluoroacetyl)-8,13,13b,14-tetrahydroindolo[2′,3′:3,4]pyrido[2,1-b]quinazolin-5(7H)-one]	1.96	1.56	–
–	–	–	–	c1ccc2c(c1)CN1CCc3c([nH]c4ccccc34)C1N2 (stereo not shown) [TR2, 5,7,8,13,13b,14-hexahydroindolo[2′,3′:3,4]pyrido[2,1-b]quinazoline]	1.66	1.76	–
1.84	showed agonist activity	1.88	showed agonist activity	O=c1c2ccccc2nc2c3[nH]c4ccccc4c3ccn12 [TR4, indolo[2′,3′:3,4]pyrido[2,1-b]quinazolin-5(13H)-one]	1.84	1.74	–
–	–	–	–	Cc1cccc2c3c([nH]c12)-c1nc2ncccc2c(=O)n1CC3 [TR12, 12-methyl-8,13-dihydropyrido[2″,3″: 4′,5′]pyrimido[1′,2′:1,2]pyrido[3,4-b]indol-5(7H)-one]	1.51	1.44	–
–	–	–	–	O=c1c2cccnc2nc2n1CCc1c-2[nH]c2c(Cl)cccc12 [TR11, 12-chloro-8,13-dihydropyrido[2″,3″:4′,5′]pyrimido[1′,2′:1,2]pyrido[3,4-b]indol-5(7H)-one]	1.57	1.68	–
–	–	–	–	O=c1c2ccccc2nc2n1CCc1c-2[nH]c2ccccc12 [RUT, Rutaecarpine, reference compound]	2.09	2.12	very low
–	–	–	–	O=C1c2ccccc2OC2c3[nH]c4ccccc4c3CCN12 (stereo not shown) [TY4, 7,8,13,13b-tetrahydro-5H-benzo[5′,6′][1,3]oxazino[3′,2′:1,2]pyrido[3,4-13]indol-5-one]	1.5	1.22	–
